`Cc1cc(-c2cc(F)c(F)cc2-c2ccc(S(C)(=O)=O)cc2)ccc1Cl` [Example 32, 4-(4-Chloro-3-methylphenyl)-1,2-difluoro-5-[4-(methylsulfonyl)phenyl]benzene] showed a melting point of 151.5 to 152.2 °C.
In the case of `Cc1ccc(-c2cc(F)c(F)cc2-c2ccc(S(C)(=O)=O)cc2)cc1C` [Example 33, 1,2-Difluoro-4-(3,4-dimethylphenyl)-5-[4-(methylsulfonyl)phenyl]benzene], the melting point is reported as 125.1 to 125.8 °C.
For `Cc1cc(-c2cc(F)c(F)cc2-c2ccc(S(N)(=O)=O)cc2)ccc1F` [Example 34, 4-[4,5-Difluoro-2-(4-fluoro-3-methylphenyl)phenyl)benzenesulfonamide], the melting point was 151.5 to 152 °C.
In the case of `COc1ccc(-c2cc(F)c(F)cc2-c2ccc(S(C)(=O)=O)cc2)cc1C` [Example 35, 1,2-Difluoro-4-(4-methoxy-3-methylpheny)-5-[4-(methylsulfonyl)phenyl]benzene], the melting point is reported as 160.5 to 161.5 °C.
Molecule `Cc1cc(-c2cc(F)c(F)cc2-c2ccc(S(N)(=O)=O)cc2)ccc1Cl` [Example 36, 4-[2-(4-Chloro-3-methylphenyl)-4,5-difluorophenyl]benzenesulfonamide] has a melting point of 141.5 to 142.8 °C.
Molecule `Cc1ccc(-c2cc(F)c(F)cc2-c2ccc(S(N)(=O)=O)cc2)cc1C` [Example 37, 4-[4,5-Difluoro-2-(3,4-dimethylphenyl)phenyl]benzenesulfonamide] has a melting point of 132.8 to 133.9 °C.
In the case of `COc1c(Cl)cc(-c2cc(F)c(F)cc2-c2ccc(S(N)(=O)=O)cc2)cc1Cl` [Example 38, 4-[2-(3,5-Dichloro-4-methoxyphenyl)-4,5-difluorophenyl]benzenesulfonamide], the melting point is reported as 145.5 to 146 °C.
In the case of `COc1ccc(-c2cc(F)c(F)cc2-c2ccc(S(N)(=O)=O)cc2)cc1C` [Example 39, 4-[4,5-Difluoro-2-(4-methoxy-3-methylphenyl)phenyl]benzenesulfonamide], the melting point is reported as 120 to 121.8 °C.
In the case of `COc1ccc(-c2cc(F)c(F)cc2-c2ccc(S(C)(=O)=O)cc2)cc1OC` [Example 40, 1,2-Difluoro-4-(3,4-dimethoxypheny)-5-[4-(methylsulfonyl)phenyl]benzene], the melting point is reported as 140 to 141 °C.
`CS(=O)(=O)c1ccc(-c2cc(F)c(F)cc2-c2ccc3c(c2)OCCO3)cc1` [Example 41] showed a melting point of 82 to 83 °C.
In the case of `COc1ccc(-c2cc(F)c(F)cc2-c2ccc(S(N)(=O)=O)cc2)cc1OC` [Example 42, 4-[4,5-Difluoro-2-(3,4-dimethoxyphenyl)phenyl]benzenesulfonamide], the melting point is reported as 157 to 158 °C.
With `NS(=O)(=O)c1ccc(-c2cc(F)c(F)cc2-c2ccc3c(c2)OCCO3)cc1` [Example 43, 4-[2-(2,3-Dihydro-1,4-benzodioxin-6-yl)-4,5-difluorophenyl]benzenesulfonamide] the melting point was 107 to 108 °C.
With `CS(=O)(=O)c1ccc(-c2cc(Cl)c(Cl)cc2-c2ccc(F)cc2)cc1` [Example 44, 1,2-Dichloro-4-(4-fluorophenyl)-5-[4-(methylsulfonyl)phenyl]benzene] the melting point was 143.5 to 144.5 °C.
With `Cc1ccc(-c2cc(F)c(F)cc2-c2ccc(S(C)(=O)=O)cc2)cn1` [Example 47, 5-[4,5-Difluoro-4′-(methylsulfonyl)-(1,1′-biphenyl)-2-yl]-2-methylpyridine] the melting point was 141 to 142.5 °C.
With `Cc1ccc(-c2cc(F)c(F)cc2-c2ccc(S(N)(=O)=O)cc2)cn1` [Example 48, 4-[4,5-Difluoro-2-(6-methylpyridin-3-yl)phenyl]benzenesulfonamide] the melting point was > 96 °C (dec.).

Reference: patent US6677488B2, “Substituted biphenyl compounds for the treatment of inflammation” (G.D. Searle & Co., priority 1995, dated 2004)
